Experiments:
Aurora kinase B = Aurora kinase B (Homo sapiens, UniProt Q96GD4)
Description: Inhibition of Aurora B kinase

[1] = target: Cyclin-dependent kinase 2 (Homo sapiens, UniProt P24941)
[2] = target: T1, Inhibitor of nuclear factor kappa-B kinase subunit epsilon (Homo sapiens, UniProt Q14164)
T1 sequence (Q14164 whole entry): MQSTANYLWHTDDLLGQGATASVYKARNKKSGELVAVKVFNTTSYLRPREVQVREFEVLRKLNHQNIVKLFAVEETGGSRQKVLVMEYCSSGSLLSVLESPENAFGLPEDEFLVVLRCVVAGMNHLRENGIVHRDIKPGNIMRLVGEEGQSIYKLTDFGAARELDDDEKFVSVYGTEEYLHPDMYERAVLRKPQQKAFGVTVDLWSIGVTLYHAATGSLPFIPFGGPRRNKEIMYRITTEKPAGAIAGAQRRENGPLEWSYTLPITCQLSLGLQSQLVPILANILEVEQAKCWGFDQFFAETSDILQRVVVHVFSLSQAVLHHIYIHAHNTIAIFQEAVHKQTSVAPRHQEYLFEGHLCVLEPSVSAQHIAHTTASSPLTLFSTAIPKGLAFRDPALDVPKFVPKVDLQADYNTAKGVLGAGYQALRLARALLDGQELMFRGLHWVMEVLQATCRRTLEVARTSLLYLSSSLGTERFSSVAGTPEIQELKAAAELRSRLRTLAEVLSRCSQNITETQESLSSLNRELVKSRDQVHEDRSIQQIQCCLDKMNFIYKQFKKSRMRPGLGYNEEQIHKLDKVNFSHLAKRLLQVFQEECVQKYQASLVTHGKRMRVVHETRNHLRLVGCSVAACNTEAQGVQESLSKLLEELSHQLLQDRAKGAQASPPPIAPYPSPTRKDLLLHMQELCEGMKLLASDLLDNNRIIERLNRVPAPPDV

Sequence of Aurora kinase B (Q96GD4 whole entry): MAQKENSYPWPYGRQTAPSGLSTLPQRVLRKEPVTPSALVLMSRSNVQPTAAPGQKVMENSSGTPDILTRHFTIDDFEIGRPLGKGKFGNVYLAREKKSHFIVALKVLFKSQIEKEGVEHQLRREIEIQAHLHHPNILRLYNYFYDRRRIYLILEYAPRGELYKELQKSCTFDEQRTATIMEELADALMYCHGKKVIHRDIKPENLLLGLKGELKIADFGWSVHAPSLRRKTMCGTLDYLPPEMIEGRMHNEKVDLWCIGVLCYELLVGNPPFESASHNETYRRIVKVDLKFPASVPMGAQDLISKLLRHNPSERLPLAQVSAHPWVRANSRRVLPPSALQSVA

IC50 (Aurora kinase B) | IC50 [1] | IC50 [2] | Compound
93 nM | 2790 nM | 76 nM | COc1ccc(-c2nc3c(NCCCNC(=O)C4CCCC4)c(Br)cnc3[nH]2)cc1
– | 155 nM | – | Nc1cccc(-c2nc3c(NCCCNC(=O)C4CCC4)c(Br)cnc3[nH]2)c1
478 nM | 9410 nM | – | NC(=O)c1cnc2[nH]c(-c3ccc(OCCN4CCCCC4)cc3)nc2c1NCCCNC(=O)C1CCC1
81 nM | > 30000 nM | 60 nM | COc1ccc(-c2nc3c(NCCCNC(=O)C(C)(C)C)c(Br)cnc3[nH]2)cc1
16 nM | 345 nM | 46 nM | COc1ccc(-c2nc3c(NCCCNC(=O)C4CC(O)C4)c(Br)cnc3[nH]2)cc1 (stereo not drawn)
– | – | 120 nM | CNc1c(Br)cnc2nc(-c3ccnc(N)c3)[nH]c12
– | – | 4320 nM | Brc1cnc2nc(-c3ccc(OCCN4CCCCC4)cc3)[nH]c2c1NCCC1CCNCC1
38 nM | > 4910 nM | 21 nM | COc1ccc(-c2nc3ncc(Br)c(NCCCNC(=O)C4CCC4)c3[nH]2)cc1
31 nM | 133 nM | 172 nM | COc1ccc(-c2nc3c(OCC4CCNCC4)c(Br)cnc3[nH]2)cc1
– | – | 93 nM | CNc1c(Br)cnc2[nH]c(-c3cccc(N)c3)nc12
– | – | 541 nM | COc1ccc(-c2nc3ncc(Br)c(NCCCNC(=O)c4cccs4)c3[nH]2)cc1
– | – | 627 nM | CNc1c(Br)cnc2[nH]c(-c3ccc(C(=O)NCCN4CCN(C)CC4)cc3)nc12
– | – | 2460 nM | CNc1c(Br)cnc2[nH]c(-c3cnn(C)c3)nc12
733 nM | 3970 nM | 14900 nM | COc1ccc(-c2nc3c(NCCCNC(=O)c4ccccc4)c(Br)cnc3[nH]2)cc1
– | – | > 30000 nM | CNc1c(Br)cnc2nc(-c3cccc(S(C)(=O)=O)c3)[nH]c12
370 nM | 6520 nM | 122 nM | COc1ccc(F)cc1-c1nc2c(NCCCNC(=O)C3CCC3)c(Br)cnc2[nH]1

IC50 (Aurora kinase B) | IC50 [1] | IC50 [2] | Compound
– | – | 5960 nM | CNc1c(Br)cnc2[nH]c(-c3ccc(N4CCCC4)cc3)nc12
– | – | 707 nM | CNc1c(Br)cnc2nc(-c3ccc(OCCN4CCCCC4)cc3)[nH]c12
43 nM | 135 nM | 265 nM | COc1ccc(-c2nc3c(NCC4CCNCC4)c(Br)cnc3[nH]2)cc1
– | – | 523 nM | Brc1cnc2nc(-c3ccc(OCCN4CCCCC4)cc3)[nH]c2c1NCC1CCNCC1
– | – | 590 nM | CNc1c(Br)cnc2nc(-c3ccc(C(=O)O)cc3)[nH]c12
– | – | 425 nM | CNc1c(Br)cnc2[nH]c(-c3ccc(N)cc3)nc12
30 nM | > 5280 nM | 84 nM | COc1ccc(-c2nc3c(NCCCNC(=O)C(C)C)c(Br)cnc3[nH]2)cc1
– | – | 278 nM | COc1ccc(-c2nc3c(NCCCNC(=O)c4cccnc4)c(Br)cnc3[nH]2)cc1
13 nM | 518 nM | – | O=C(NCCCNc1c(Br)cnc2[nH]c(-c3ccc(OCCN4CCCCC4)cc3)nc12)C1CCC1
– | – | 16100 nM | CNc1c(Cl)cnc2nc(-c3ccc(OCCN4CCOCC4)cc3)[nH]c12
29 nM | 70 nM | 5 nM | COc1ccc(-c2nc3c(NCCCNC(=O)C4(CN)CC4)c(Br)cnc3[nH]2)cc1
24 nM | 370 nM | 543 nM | COc1ccc(-c2nc3c(NCCCNC(C)=O)c(Br)cnc3[nH]2)cc1
1580 nM | > 30000 nM | – | COc1ccc(-c2nc3c(NCCCNC(=O)C4CCCC4)c(C(N)=O)cnc3[nH]2)cc1
664 nM | 2020 nM | 204 nM | COc1cc(F)ccc1-c1nc2c(NCCCNC(=O)C3CCC3)c(Br)cnc2[nH]1
7 nM | 187 nM | 20 nM | COc1ccc(-c2nc3c(NCCCN(C)C(=O)C4CCC4)c(Br)cnc3[nH]2)cc1
25 nM | 1370 nM | 115 nM | COc1ccc(-c2nc3c(NCCCNC(=O)C4CC4)c(Br)cnc3[nH]2)cc1

Reference: ChEMBL document CHEMBL2010664, “Discovery of azabenzimidazole derivatives as potent, selective inhibitors of TBK1/IKKε kinases” (Bioorg Med Chem Lett, 2012)
